The results in this text go back to patent US20240192237A1 (curantis UG, priority 2021, published 2024).

SMILES strings stand for the structures.

This series in a line: CBD trough plasma concentration in clinical trials CBD-CT1 and CBD-PT (LC-MS/MS). In kind it is in vivo, patients. Particulars: for concentration at 7 day: Day 7, mean ± SD; for concentration at 14 day: Day 14, mean ± SD. The procedure: CBD was administered as an oral dose in a capsule formulation. The dose was increased during the first week from 200 mg/d to 800 mg/d (4×200 mg) and remained at this level for the rest of the study period. Due to serious unwanted effects, the dose could be reduced irreversibly to 600 mg/d starting with day 15. […] Dose applications, blood sampling, and assessment of PANSS followed the time schedule presented below. Additional treatment with 7.5 mg lorazepam per day during the whole study period was permitted. […]
Eighteen patients with a diagnosis of schizophrenia or schizophreniform disorder should be included in this trial per protocol. Because dropouts had to be replaced by a new patient a total number of 29 patients was randomized from February 2006 to June 2008. All randomized patients complied with all inclusion and exclusion criteria: age between 18 and 65, male and female, specific DSM-IV diagnoses, initial BPRS score≥36, no pregnancy or lactation phase, reliable contraception, no lack of accountability, no other relevant interferences, no treatment with depot-antipsychotics during the last three months, no severe internal or neurological illness, no QTc prolongation, no acute suicidality nor endangerment of others by the patient. […] Treatment lasted four weeks: the first period with two weeks of CBD or placebo treatment was followed by a second period with a two-week treatment of placebo or CBD, respectively. There was no washout period between the two treatments. […] The dose could be reduced irreversibly to 400 mg/d in case of serious unwanted effects. […] The PANSS was applied at baseline and day 14 and 28. Dose applications, blood sampling, and assessment of PANSS followed the time schedule presented below. Additional treatment with 5.0 mg lorazepam per day during the whole study period was permitted. […]
Therefore, documentation of time points when CBD was administered and when blood samples were taken was limited and not included in the electronic data. Information on possible dose reductions e.g. due to adverse events were missing in the electronic data, too. In cooperation with the PI, time points were inputted based on standard routines on the ward: application of study medication was set to 9:00 AM, 12:30 PM, 6:30 PM, and 10:00 PM, and blood sampling was scheduled at 8:45 AM. Assessment of the PANSS was also timed to 8:45 AM. The loss of accuracy by standardizing times was considered acceptable because the time interval between doses and blood sampling is long, so small deviations would have no major impact. Information on actually applied doses or reduced doses was updated in cooperation with a member of the PI's research group. Based on notes in archived patient's case report files and other paper-based documents the electronic data was adjusted.
After consultation with the PI, these values were replaced with 0 because all patients with positive drug screening were excluded from the clinical trial according to the study protocol. Baseline values>0 may result from errors in procedure e.g. when blood samples were taken after dose application. Therefore, the replacement is considered as being equivalent to an imputation of a predose measurement which was not conducted.

Where [1] appears, read: both sexes, human, plasma, oral capsule 600 mg/d, cross-over with placebo.

For `C=C(C)[C@@H]1CCC(C)=C[C@H]1c1c(O)cc(CCCCC)cc1O` [CBD, cannabidiol], the “CBD plasma concentration, CBD-PT” value (Day 21, mean ± SD, cross-over, 0 PT patients under CBD treatment per table) is 4.0 ± 1.2 µg/L. For the same compound, the concentration at 28 day (both sexes, human, plasma, oral, 600 mg/d) was determined as 2.3 ± 1 ng/mL; the concentration at 28 day (human, plasma, oral, Day 28, mean ± SD, CBD-CT1 + CBD-PT pooled) stood at 29.2 ± 27.8 ng/mL; the concentration at 28 day (human, plasma, Day 28, mean ± SD, oral capsule 800 mg/d, trough) was found to be 42.6 ± 24.7 ng/mL. Further, the concentration at 7 day by setting is: (both sexes, human, plasma, oral, 600 mg/d, CBD-CT1 + CBD-PT pooled (only PT measured)) 14.1 ± 9.1 ng/mL; under setting [1], 14.1 ± 9.1 ng/mL. Under “both sexes, human, plasma, oral, 600 mg/d, Day 21, mean ± SD, pooled (only PT measured)”, this compound gave a concentration at 21 day of 4 ± 1.2 ng/mL. Further, the concentration at 14 day runs as follows: under setting [1], 19.3 ± 8.7 ng/mL; (human, plasma, oral, CBD-CT1 + CBD-PT pooled) 35.4 ± 22.6 ng/mL; (human, plasma, oral capsule 800 mg/d (titrated from 200 mg/d in first week), trough) 50.5 ± 21.2 ng/mL.
